The target of one assay is T1, hetero-EPOR (Homo sapiens, UniProt P19235+P32927).
T1 sequence (P19235 25-508): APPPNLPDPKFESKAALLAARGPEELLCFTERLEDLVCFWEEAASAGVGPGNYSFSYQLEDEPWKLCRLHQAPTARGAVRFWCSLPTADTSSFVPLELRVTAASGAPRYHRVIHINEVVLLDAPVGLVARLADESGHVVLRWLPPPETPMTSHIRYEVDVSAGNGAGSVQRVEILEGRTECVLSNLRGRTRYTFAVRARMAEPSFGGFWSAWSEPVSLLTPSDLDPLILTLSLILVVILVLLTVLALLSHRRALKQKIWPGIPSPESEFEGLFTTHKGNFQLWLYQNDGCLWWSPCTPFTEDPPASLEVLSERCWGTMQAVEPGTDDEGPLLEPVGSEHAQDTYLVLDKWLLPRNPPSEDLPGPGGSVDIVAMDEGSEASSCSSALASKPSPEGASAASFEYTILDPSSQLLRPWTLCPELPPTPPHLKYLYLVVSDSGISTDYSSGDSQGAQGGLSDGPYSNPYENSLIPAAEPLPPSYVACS
T1 sequence (P32927 17-897): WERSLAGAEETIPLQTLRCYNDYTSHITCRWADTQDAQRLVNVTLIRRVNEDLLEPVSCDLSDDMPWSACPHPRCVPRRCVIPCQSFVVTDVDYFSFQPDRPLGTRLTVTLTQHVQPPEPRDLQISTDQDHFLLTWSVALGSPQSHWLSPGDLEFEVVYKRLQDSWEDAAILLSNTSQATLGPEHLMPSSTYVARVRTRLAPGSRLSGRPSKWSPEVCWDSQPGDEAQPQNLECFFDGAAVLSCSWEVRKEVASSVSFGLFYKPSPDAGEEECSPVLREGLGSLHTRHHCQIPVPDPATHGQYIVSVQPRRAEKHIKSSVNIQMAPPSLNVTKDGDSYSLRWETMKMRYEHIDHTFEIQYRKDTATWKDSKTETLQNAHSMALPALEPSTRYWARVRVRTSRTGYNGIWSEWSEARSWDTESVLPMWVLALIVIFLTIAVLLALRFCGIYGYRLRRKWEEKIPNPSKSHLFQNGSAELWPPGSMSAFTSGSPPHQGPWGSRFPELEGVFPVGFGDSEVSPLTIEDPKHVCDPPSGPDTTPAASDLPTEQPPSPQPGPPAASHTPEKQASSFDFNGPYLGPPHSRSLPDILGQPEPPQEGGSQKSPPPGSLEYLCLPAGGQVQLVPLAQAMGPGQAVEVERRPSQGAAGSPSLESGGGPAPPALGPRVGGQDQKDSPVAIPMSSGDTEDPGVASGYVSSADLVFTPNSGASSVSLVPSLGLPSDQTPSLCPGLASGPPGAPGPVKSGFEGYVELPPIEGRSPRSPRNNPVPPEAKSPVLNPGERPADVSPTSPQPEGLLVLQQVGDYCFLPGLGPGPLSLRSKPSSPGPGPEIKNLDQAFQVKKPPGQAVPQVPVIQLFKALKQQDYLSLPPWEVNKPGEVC
The conditions noted are these: cited from earlier work.

The next assay deals with PHD1-3. The conditions noted are these: target PHD1-3; cited from earlier work.
In assay [1] the test system is CD11c^IntMHCII^HighXCR1^+ cDC1s / OT-II cells. Description: In vitro Ag-specific Treg induction: pLN cDC1s loaded with Ova-thy cells and naïve OT-II cells. It is filed as cell-based, mouse. The conditions noted are these: untreated cells 25.5%.
The target in another assay is Glucosidase. The conditions noted are these: target Glucosidase; cited from earlier work.

QEQLERALNSS: the “activity for the hetero-EPOR” value with hetero-EPOR is “activates the hetero-EPOR”. Broadly, the IC50 is the concentration needed to halve the response being measured. Consider `COc1ccc(C(NC(=O)c2cnc(-c3cccnn3)nc2O)c2ccc(OC)cc2)cc1` [MK-8617], for which the IC50 in the assay on PHD1-3 is 1 to 14 nM.

Turning to “CEPO: chemically modified EPO analog in which the Lys residues are carbamylated [reference compound]”, in assay [1], the FoxP3 expressing cells worked out at 69.3%. Consider `O=c1cc(-c2ccc(O)cc2)oc2c([C@@H]3O[C@H](CO)[C@@H](O)[C@H](O)[C@H]3O)c(O)cc(O)c12` [Vitexin], for which the IC50 on Glucosidase is 48 nM. With `O=C(O)CNC(=O)C1=C(O)CCN(Cc2ccc(Oc3ccc(Cl)cc3)nc2)C1=O` [TP0463518], the IC50 with PHD1-3 was 5.3 to 63 nM.
